What was measured:
P388 [1] = assay: Antitumor activity against P388, was determined by injecting intraperitoneally in mice, at a dose of 50 mg/kg; assay type: functional, Mus musculus; settings: route intraperitoneal
[2] = In vitro inhibition of KB cell growth.; assay type: functional, Homo sapiens
P388 [3] = assay: Antitumor activity against P388, was determined by injecting intraperitoneally in mice, at a dose of 100 mg/kg; assay type: functional, Mus musculus; settings: route intraperitoneal
P388 [4] = assay: Antitumor activity against P388, was determined by injecting intraperitoneally in mice, at a dose of 20 mg/kg; assay type: functional, Mus musculus; settings: route intraperitoneal
P388 [5] = assay: Antitumor activity in P388 inoculated mice following 10 mg/kg i.p. administration.; assay type: functional, Mus musculus; settings: route intraperitoneal
P388 [6] = assay: Antitumor activity in P388 inoculated mice following 5 mg/kg i.p. administration.; assay type: functional, Mus musculus; settings: route intraperitoneal
P388 [7] = assay: Antitumor activity against P388, was determined by injecting intraperitoneally in mice, at a dose of 10 mg/kg; assay type: functional, Mus musculus; settings: route intraperitoneal
P388 [8] = assay: Antitumor activity against P388, was determined by injecting intraperitoneally in mice, at a dose of 400 mg/kg; assay type: functional, Mus musculus; settings: route intraperitoneal
P388 [9] = assay: Antitumor activity against P388, was determined by injecting intraperitoneally in mice, at a dose of 200 mg/kg; assay type: functional, Mus musculus; settings: route intraperitoneal
P388 [10] = assay: Antitumor activity against P388, was determined by injecting intraperitoneally in mice, at a dose of 5 mg/kg; settings: route intraperitoneal
P388 [11] = assay: Antitumor activity against P388, was determined by injecting intraperitoneally in mice, at a dose of 1.3 mg/kg; assay type: functional, Mus musculus; settings: route intraperitoneal
P388 [12] = assay: Antitumor activity against P388, was determined by injecting intraperitoneally in mice, at a dose of 2.5 mg/kg; assay type: functional, Mus musculus; settings: route intraperitoneal

| Structure (SMILES) | Activity [2] | T/C (P388 [4]) | T/C (P388 [5]) | T/C (P388 [6]) | further results |
| --- | --- | --- | --- | --- | --- |
| CC(C)c1ccc(C(c2ccc(OCc3ccccc3)cc2)c2ccc(C(C)C)cc(=O)c2O)c(O)c(=O)c1 | 4.65 µg/mL | 101% |  |  | T/C (P388 [1]): 148%; T/C (P388 [3]): 152% |
| CC(C)c1ccc(C(c2ccc(N)cc2)c2ccc(C(C)C)cc(=O)c2O)c(O)c(=O)c1 |  | 147% | 147% | 138% |  |
| COc1cc(C(c2ccc(C(C)C)cc(=O)c2O)c2ccc(C(C)C)cc(=O)c2O)cc(OC)c1OC | <0.3 µg/mL | 162% | 151% | 142% |  |
| CC(C)c1ccc(C(c2ccc(C(C)C)cc(=O)c2O)c2cccc3ccccc23)c(O)c(=O)c1 | 2.6 µg/mL | 178% | 178% | 180% |  |
| CCOC(=O)COc1ccc(C(c2ccc(C(C)C)cc(=O)c2O)c2ccc(C(C)C)cc(=O)c2O)cc1 |  | 0% |  | 125% | T/C (P388 [7]): 0% |
| COc1ccc(C(c2ccc(C(C)C)cc(=O)c2O)C(c2ccc(OC)cc2)c2ccc(C(C)C)cc(=O)c2O)cc1 (stereo unspecified) | 5.2 µg/mL |  |  |  | T/C (P388 [8]): 139%; T/C (P388 [9]): 140%; T/C (P388 [3]): 138% |
| CC(C)c1ccc(C(c2ccc([N+](C)(C)C)cc2)c2ccc(C(C)C)cc(=O)c2O)c(O)c(=O)c1.[I-] | 2.5 µg/mL | 91% | 95% | 102% |  |
| CC(C)c1ccc(C(c2cccc3ccccc23)C(c2ccc(C(C)C)cc(=O)c2O)c2cccc3ccccc23)c(O)c(=O)c1 (stereo unspecified) | <100 µg/mL |  |  |  | T/C (P388 [8]): 95%; T/C (P388 [9]): 96%; T/C (P388 [3]): 98% |
| CC(C)c1ccc(C(c2cccs2)c2ccc(C(C)C)cc(=O)c2O)c(O)c(=O)c1 | 0.6 µg/mL |  | 57% | 178% | T/C (P388 [10]): 178% |
| CC(C)c1ccc(C(c2ccc(O)cc2)c2ccc(C(C)C)cc(=O)c2O)c(O)c(=O)c1 | <0.3 µg/mL |  | 0% | 195% | T/C (P388 [11]): 139% |
| CC(C)c1ccc(C(c2ccc(-c3ccccc3)cc2)c2ccc(C(C)C)cc(=O)c2O)c(O)c(=O)c1 | 2.5 µg/mL | 127% | 138% | 111% |  |
| CC(C)c1ccc(C(c2ccco2)c2ccc(C(C)C)cc(=O)c2O)c(O)c(=O)c1 |  |  | 0% | 177% | T/C (P388 [11]): 132%; T/C (P388 [12]): 142% |
| CC(C)c1ccc(C(c2ccc(OCC(=O)[O-])cc2)c2ccc(C(C)C)cc(=O)c2O)c(O)c(=O)c1.[Na+] | 2.6 µg/mL |  | 0% | 109% |  |
| COC(=O)c1ccc(C(c2ccc(C(C)C)cc(=O)c2O)c2ccc(C(C)C)cc(=O)c2O)cc1 | 0.5 µg/mL | 0% | 128% | 145% |  |
| CC(C)c1ccc(C(c2ccc(C(c3ccc(C(C)C)cc(=O)c3O)c3ccc(C(C)C)cc(=O)c3O)cc2)c2ccc(C(C)C)cc(=O)c2O)c(O)c(=O)c1 | 100 µg/mL | 100% | 105% | 107% |  |
| CC(C)c1ccc(C(c2ccc3c(c2)OCO3)c2ccc(C(C)C)cc(=O)c2O)c(O)c(=O)c1 | 0.5 µg/mL | 186% | 193% | 182% |  |
| CC(C)c1ccc(C(c2ccc(OCc3ccccc3)cc2)C(c2ccc(OCc3ccccc3)cc2)c2ccc(C(C)C)cc(=O)c2O)c(O)c(=O)c1 (stereo unspecified) | <100 µg/mL |  |  |  |  |
| CC(C)c1ccc(C(c2ccccc2)c2ccc(C(C)C)cc(=O)c2O)c(O)c(=O)c1 | <0.3 µg/mL |  | 0% | 188% | T/C (P388 [11]): 132%; T/C (P388 [12]): 150% |
| CC(C)c1ccc(C(c2ccc(C(=O)O)cc2)c2ccc(C(C)C)cc(=O)c2O)c(O)c(=O)c1 | 0.5 µg/mL | 0% | 139% |  | T/C (P388 [11]): 124%; T/C (P388 [12]): 154% |
| CC(=O)Nc1ccc(C(c2ccc(C(C)C)cc(=O)c2O)c2ccc(C(C)C)cc(=O)c2O)cc1 | <0.3 µg/mL | 0% | 128% | 171% |  |
| COc1ccc(C(c2ccc(C(C)C)cc(=O)c2O)c2ccc(C(C)C)cc(=O)c2O)cc1 | <0.3 µg/mL |  | 170% | 173% | T/C (P388 [7]): 170%; T/C (P388 [12]): 134% |

— ChEMBL document CHEMBL1123500, “Synthesis and antitumor activity of tropolone derivatives. 3” (1986)
